Read-outs that look alike come from different tables or passages of the source.
Columns and labels:
[1] = test system: Rat L6 cell (rat skeletal myoblast cell); assay: in vitro growth-inhibiting assay of rat L6 cells; assay type: cell-based
Description: Rat L6 cell (rat skeletal myoblast cell) was cultured in RPMI-1640 culture medium supplemented with 1% of L-glutamine (200 mM) and fetal calf serum (10%) under 5% CO2 concentration at 37° C. A test sample was prepared by dissolving the test compounds according to the present invention and a positive control drug in DMSO to a predetermined concentration. After pre-culture had been finished, the culture medium containing the cells in a logarithmic phase was placed into each well of a 96-well culture plate, and the test sample comprising the predetermined amount of the test compound, and DMSO without the test compound were added to the wells in duplicate.
(§1) After incubation of the culture plate for 72 hours in an incubator, a growth-inhibiting activity was assayed as follows. Alamar Blue aqueous solution (10 μL) was added to each well followed by a further two-hour culture. The culture plate was then attached to a fluorescence micro titer plate reader (Spectramax Gemeni XS; U.S. Molecular Device Co.), and the intensity of fluorescence at 588 nm was detected with an excitation wave length of 536 nm. A residual ratio of L6 cells was calculated with respect to a group treated with the test sample and a control group. A growth-inhibiting ratio for L6 cells was then calculated from the resulting residual ratio in accordance with the following equation to determine 50% growth-inhibiting concentration (EC50).
Growth-inhibiting ratio (%)=[1−(C−A)/(B−A)]×100 • A: Initial number of cells; • B: Number of the cells in the control after 3 days; and • C: Number of the cells treated with the test sample after 3 days Determination of Pharmaceutical effect for Chloroquine-Resistant Malaria

[2] = mouse, in vivo, po
[3] = test system: Trypanosoma brucei rhodensiense (STIB 900 strain); assay: in vitro growth-inhibiting screening assay, protozoa of African trypanosomiasis; assay type: cell-based; conditions: for EC50: 72 h, Alamar Blue, read-out: 50% growth-inhibiting concentration (nM) Trypanosoma brucei rhod.
Description: This test was done using a trypomastigote of the protozoa of Trypanosoma brucei rhodensiense (STIB 900 strain) ranging in blood stream. MEM medium sterilized by filtration was supplemented with 25 mM of N-2-hydroxyethylpiperazine-2-ethanesulfonic acid (HEPES), 1 g/L of glucose, 1% of MEM non-essential amino acids, 0.2 mM of 2-mercaptoethanol, 2 mM of sodium pyruvate, 1 mM of hypoxathine and 15% of heat-treated horse serum. The protozoa were cultured under CO2 concentration of 5%, at 37° C.
A test sample was prepared by dissolving the test compounds according to the present invention and a positive control drug (Melarsoprol) in DMSO to a predetermined concentration. Culture medium containing the protozoa of 8×10^3, and the test sample comprising the predetermined amount of the test compound, and DMSO without the test compound were added into each well of 96-well culture plate to a final volume of 100 μL in duplicate.
as §1, with “Co.),” for “Co.), and”, “with” for “with an”, “nm to calculate an infection” for “nm. A residual”, “the protozoa” for “L6 cells was calculated”, “ratio” for “ratio for L6 cells”, “infection” for “residual”
(§2) Growth-inhibiting ratio (%)=[1−(b−a)/(c−a)]×100 • a: Initial infection ratio; • b: Infection ratio of the test sample group; and • c: Infection ratio of the control group.
A selective toxicity coefficient, which is used as an index for the selective toxicity for the protozoa of African trypanosomiasis, was calculated by the following equation, and the pharmaceutical effect was determined.
Selective toxicity coefficient=(EC50 value of the test sample for rat L6 cell)/(EC50 value of the test sample for the protozoa of African typanosomiasis)

[4] = test system: Leishmania donovani (MHOM/ET/67/L82 strain); assay: in vitro growth-inhibiting screening assay, protozoa of Leishmaniasis; assay type: cell-based; conditions: amastigotes; 72 h, Alamar Blue; read-out: growth-inhibiting concentration (nM) Leishmania donovani
Description: This test was done using the protozoa of Leishmania donovani (MHOM/ET/67/L82 strain). The protozoa were subcultured using Syrian Golden hamster and an amastigote was obtained therefrom. The amastigotes were cultured in SM medium supplemented with 10% of heat-treated fetal calf serum (pH 5.4) under CO2 concentration of 5%, at 37° C.
A test sample was prepared by dissolving the test compounds according to the present invention and a positive control drug (Miltefosine) in DMSO to a predetermined concentration. Culture medium containing a predetermined number of the protozoa was added into each well of a 96-well culture plate, and the concentration of the amastigotes was measured by means of CASY cell analysis system (Dermany, Scharfe Co.). Test sample comprising the predetermined amount of the test compound, and DMSO without the test compound were added to the wells in duplicate.
After incubation of the culture plate for 72 hours in an incubator, a growth-inhibiting activity was assayed as follows. Alamar Blue aqueous solution (10 μL) was added to each well followed by a further two-hour culture. The culture plate was then attached to a fluorescence micro titer plate reader (Spectramax Gemeni XS; U.S. Molecular device Co.), the intensity of fluorescence at 588 nm was detected with excitation wave length of 536 nm to calculate an infection ratio of the protozoa with respect to a group trated with the test sample and a control group. A growth-inhibiting ratio was then calculated from the resulting infection ratio in accordance with the following equation to determine 50% growth-inhibiting concentration (EC50).
as §2
A selective toxicity coefficient, which is used as an index for the selective toxicity for the protozoa of Leishmaniasis, was calculated by the following equation, and the pharmaceutical effect was determined.
A selective toxicity coefficient=(EC50 value of the test sample for rat L6 cell)/(EC50 value of the test sample for the protozoa of Leishmaniasis).

[5] = Table 3, 72 h, Alamar Blue, read-out: 50% growth-inhibiting concentration (nM) cytotoxicity L6
[6] = Table 8, read-out: 50% growth-inhibiting concentration (nM) cytotoxicity L6
[7] = Table 9, read-out: 50% growth-inhibiting concentration (nM) cytotoxicity L6
[8] = Table 10, read-out: growth-inhibiting concentration (nM) Cytotoxicity L6

Row | SMILES | EC50 [1] | reduction in weight or change of the conditions of mice attributed to side effects [2] | EC50 [1, 5] | EC50 [1, 6] | EC50 [1, 7] | EC50 [1, 8] | EC50 [3] | EC50 [4] | Selective toxicity ([3]; EC50 rat L6 cell / EC50 protozoa of African trypanosomiasis) | EC50 ([3]; Trypanosoma brucei, STIB900)
1 | CCN(CC)c1ccc2nc3ccc(=[N+](CC)CC)cc-3oc2c1.[Cl-] [A-1 (>95% purity)] | 20500 nM | No reduction in weight or change of the conditions of mice |  |  |  |  |  |  |  | 
2 | CCCC[N+](CCCC)=c1ccc2nc3ccc(N(CC)CC)cc3oc-2c1.[Cl-] [Compound A-6] |  |  | 839 nM | 839 nM | 839 nM | 839 nM | 67.2 nM | 23 nM |  | 
3 | CCCC[N+](CCCC)=c1ccc2nc3ccc(N(C)C)cc3oc-2c1.[O-][Cl+3]([O-])([O-])[O-] [Compound A-7] |  |  | 409 nM | 409 nM | 409 nM | 409 nM | 113 nM | 6 nM |  | 
4 | CCN(CC)c1ccc2nc3ccc(=[N+](CC)CC)cc-3oc2c1.[Cl-] [A-1 (60% purity)] | 3950 nM | No reduction in weight or change of the conditions of mice |  |  |  |  | 181 nM | 2810 nM |  | 
5 | CC[N+](CC)=c1ccc2nc3ccc(N(C)C)cc3oc-2c1 [Compound A-4] |  |  |  |  |  |  |  |  | 9.4 | 497 nM
6 | CN(C)c1ccc2nc3ccc(=[N+](C)C)cc-3oc2c1.CN(C)c1ccc2nc3ccc(=[N+](C)C)cc-3oc2c1.[Cl-].[Cl-].[Cl][Zn][Cl] [Compound A-3] |  |  | 8870 nM | 8870 nM | 8870 nM | 8870 nM | 565 nM | 887 nM |  | 

Source: US20090036437A1, “PHARMACEUTICAL COMPOSITION COMPRISING PHENOXAZINIUM COMPOUND AS AN ACTIVE INGREDIENT” (priority 2005, published 2009)
